# Source: ChEMBL document CHEMBL5465560, “Selectivity Literature for EUbOPEN Chemogenomic Library” (2024)
# Assays:
# [1] = tested on: Receptor-type tyrosine-protein kinase FLT3 (Homo sapiens), P36888 [UNDEFINED MUTATION]; assay: Selectivity interaction (KinomeScan (DiscoverX)) EUB0000311b FLT3; settings: at 1 µM
# [2] = target: T1, Interleukin-1 receptor-associated kinase 3 (Homo sapiens) (UniProt Q9Y616); assay: Selectivity interaction (KinomeScan (DiscoverX)) EUB0000695a IRAK3; settings: at 100 nM
# T1 sequence (whole entry): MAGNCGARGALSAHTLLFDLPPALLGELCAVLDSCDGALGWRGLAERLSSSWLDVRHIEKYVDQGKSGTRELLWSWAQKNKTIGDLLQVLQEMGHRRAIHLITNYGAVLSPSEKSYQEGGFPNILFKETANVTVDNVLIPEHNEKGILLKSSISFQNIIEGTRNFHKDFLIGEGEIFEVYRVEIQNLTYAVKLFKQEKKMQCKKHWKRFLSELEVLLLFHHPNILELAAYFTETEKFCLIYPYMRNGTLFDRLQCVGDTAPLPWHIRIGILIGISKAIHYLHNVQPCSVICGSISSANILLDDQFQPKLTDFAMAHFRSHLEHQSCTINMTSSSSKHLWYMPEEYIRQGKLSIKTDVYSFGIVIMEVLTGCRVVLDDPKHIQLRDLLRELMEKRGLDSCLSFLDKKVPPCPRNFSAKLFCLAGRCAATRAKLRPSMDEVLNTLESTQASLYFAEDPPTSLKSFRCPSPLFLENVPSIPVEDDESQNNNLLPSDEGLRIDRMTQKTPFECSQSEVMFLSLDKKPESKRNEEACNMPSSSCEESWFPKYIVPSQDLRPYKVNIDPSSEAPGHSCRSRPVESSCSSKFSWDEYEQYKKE
# [3] = tested on: Phosphatidylinositol 4,5-bisphosphate 3-kinase catalytic subunit alpha isoform (Homo sapiens), P42336 [E545A]; assay: (§1) Selectivity interaction (KinomeScan (DiscoverX)) EUB0000666a PIK3CA; settings: at 10 µM
# [4] = tested on: Phosphatidylinositol 4,5-bisphosphate 3-kinase catalytic subunit alpha isoform (Homo sapiens), P42336 [C420R]; assay: as §1; settings: at 10 µM
# [5] = tested on: Phosphatidylinositol 4,5-bisphosphate 3-kinase catalytic subunit alpha isoform (Homo sapiens), P42336 [Q546K]; assay: as §1; settings: at 10 µM
# [6] = tested on: Phosphatidylinositol 4,5-bisphosphate 3-kinase catalytic subunit alpha isoform (Homo sapiens), P42336 [E542K]; assay: as §1; settings: at 10 µM
# [7] = tested on: Phosphatidylinositol 4,5-bisphosphate 3-kinase catalytic subunit alpha isoform (Homo sapiens), P42336 [I800L]; assay: as §1; settings: at 10 µM
# [8] = target: Tyrosine-protein kinase BTK (Homo sapiens, UniProt Q06187); settings: at 10 µM
# [9] = target: Prostaglandin G/H synthase 1 (Homo sapiens) (UniProt P23219); assay: Selectivity interaction (Panel of non-epigenetic targets (kinases, GPCRs, ion channels, and transporters, Eurofins) ) EUB0000271b PTGS1; settings: at 1 µM
# [10] = target: Histone-lysine N-methyltransferase 2A (Homo sapiens) (UniProt Q03164); assay: Selectivity interaction (Methyltransferase screen (radiometric assays, panel of 8 PRMTs, 21 protein lysine methyltransferases, 3 DNA methyltransferases, and one RNA methyltransferase)) EUB0000271b MLL
# D(1A) dopamine receptor = D(1A) dopamine receptor (Homo sapiens, UniProt P21728); assay: Selectivity interaction (Eurofins CEREP Diversity Profile (receptors and ion channels)) EUB0000279b DRD1; settings: at 10 µM
# [11] = target: Casein kinase I isoform gamma-1 (Homo sapiens) (UniProt Q9HCP0); assay: Selectivity interaction (SelectScreen profiling (Invitrogen)) EUB0000607a CSNK1G1; settings: at 2 µM
# [12] = target: Phosphatidylinositol 4,5-bisphosphate 3-kinase catalytic subunit gamma isoform (Homo sapiens) (UniProt P48736); assay: Selectivity interaction (KinomeScan (DiscoverX)) EUB0000607a PIK3CG; settings: at 10 µM
# [13] = target: T2, Mitogen-activated protein kinase kinase kinase 5 (Homo sapiens) (UniProt Q99683); assay: Selectivity interaction (KinomeScan (DiscoverX)) EUB0000655a MAP3K5; settings: at 10 µM
# T2 sequence (whole entry): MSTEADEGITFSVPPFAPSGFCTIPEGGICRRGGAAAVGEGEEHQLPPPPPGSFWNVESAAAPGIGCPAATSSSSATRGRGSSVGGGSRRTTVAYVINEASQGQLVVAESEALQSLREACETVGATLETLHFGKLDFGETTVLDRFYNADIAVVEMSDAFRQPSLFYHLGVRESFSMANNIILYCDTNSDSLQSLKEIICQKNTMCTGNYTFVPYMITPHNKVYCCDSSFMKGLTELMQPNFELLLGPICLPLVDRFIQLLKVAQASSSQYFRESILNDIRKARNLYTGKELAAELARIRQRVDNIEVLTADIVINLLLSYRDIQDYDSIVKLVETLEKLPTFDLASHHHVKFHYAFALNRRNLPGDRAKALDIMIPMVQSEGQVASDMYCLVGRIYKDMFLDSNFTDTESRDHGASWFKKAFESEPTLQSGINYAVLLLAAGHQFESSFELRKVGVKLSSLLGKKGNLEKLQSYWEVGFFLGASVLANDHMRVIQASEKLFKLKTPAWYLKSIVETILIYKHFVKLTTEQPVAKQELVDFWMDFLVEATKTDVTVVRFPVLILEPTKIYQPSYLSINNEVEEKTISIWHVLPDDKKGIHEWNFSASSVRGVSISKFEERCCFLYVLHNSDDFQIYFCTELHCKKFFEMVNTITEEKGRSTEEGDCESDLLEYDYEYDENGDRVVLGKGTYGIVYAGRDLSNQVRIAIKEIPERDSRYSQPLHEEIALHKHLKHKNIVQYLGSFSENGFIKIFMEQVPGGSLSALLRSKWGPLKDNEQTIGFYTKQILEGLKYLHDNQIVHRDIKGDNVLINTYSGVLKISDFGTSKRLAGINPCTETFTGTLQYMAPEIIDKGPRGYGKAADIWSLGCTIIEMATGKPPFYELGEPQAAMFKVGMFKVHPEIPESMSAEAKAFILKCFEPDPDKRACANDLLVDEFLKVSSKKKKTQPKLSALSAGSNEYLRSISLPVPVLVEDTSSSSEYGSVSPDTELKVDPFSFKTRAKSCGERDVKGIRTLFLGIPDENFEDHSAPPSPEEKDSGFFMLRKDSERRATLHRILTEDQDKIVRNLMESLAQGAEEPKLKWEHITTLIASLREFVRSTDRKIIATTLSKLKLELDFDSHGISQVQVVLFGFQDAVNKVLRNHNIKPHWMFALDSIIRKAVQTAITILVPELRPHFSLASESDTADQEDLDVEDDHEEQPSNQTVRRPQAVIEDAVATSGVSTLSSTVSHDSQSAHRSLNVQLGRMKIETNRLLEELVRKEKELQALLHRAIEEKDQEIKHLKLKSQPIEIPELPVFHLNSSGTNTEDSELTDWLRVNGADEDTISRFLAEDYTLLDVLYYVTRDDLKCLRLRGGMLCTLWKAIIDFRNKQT
# [14] = target: Serine/threonine-protein kinase 26 (Homo sapiens, UniProt Q9P289); assay: Selectivity interaction (KinomeScan (DiscoverX)) EUB0000092b STK26; settings: at 10 µM
# Chain of Serine/threonine-protein kinase 26 (Q9P289 2-416 limits assumed): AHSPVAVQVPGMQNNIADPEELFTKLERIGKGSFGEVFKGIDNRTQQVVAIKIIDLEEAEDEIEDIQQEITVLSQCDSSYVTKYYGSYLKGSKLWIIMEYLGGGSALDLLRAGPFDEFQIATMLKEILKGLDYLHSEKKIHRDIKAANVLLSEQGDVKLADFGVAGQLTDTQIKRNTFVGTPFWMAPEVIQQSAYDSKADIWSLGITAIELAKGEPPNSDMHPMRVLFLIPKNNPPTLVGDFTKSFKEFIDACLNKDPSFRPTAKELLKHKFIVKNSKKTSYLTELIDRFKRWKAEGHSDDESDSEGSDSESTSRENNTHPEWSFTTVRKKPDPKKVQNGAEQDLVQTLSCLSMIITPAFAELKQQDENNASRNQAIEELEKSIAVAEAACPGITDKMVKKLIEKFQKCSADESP
# Chain of Histone-lysine N-methyltransferase 2A (Homo sapiens) (Q03164 1-2718 limits assumed): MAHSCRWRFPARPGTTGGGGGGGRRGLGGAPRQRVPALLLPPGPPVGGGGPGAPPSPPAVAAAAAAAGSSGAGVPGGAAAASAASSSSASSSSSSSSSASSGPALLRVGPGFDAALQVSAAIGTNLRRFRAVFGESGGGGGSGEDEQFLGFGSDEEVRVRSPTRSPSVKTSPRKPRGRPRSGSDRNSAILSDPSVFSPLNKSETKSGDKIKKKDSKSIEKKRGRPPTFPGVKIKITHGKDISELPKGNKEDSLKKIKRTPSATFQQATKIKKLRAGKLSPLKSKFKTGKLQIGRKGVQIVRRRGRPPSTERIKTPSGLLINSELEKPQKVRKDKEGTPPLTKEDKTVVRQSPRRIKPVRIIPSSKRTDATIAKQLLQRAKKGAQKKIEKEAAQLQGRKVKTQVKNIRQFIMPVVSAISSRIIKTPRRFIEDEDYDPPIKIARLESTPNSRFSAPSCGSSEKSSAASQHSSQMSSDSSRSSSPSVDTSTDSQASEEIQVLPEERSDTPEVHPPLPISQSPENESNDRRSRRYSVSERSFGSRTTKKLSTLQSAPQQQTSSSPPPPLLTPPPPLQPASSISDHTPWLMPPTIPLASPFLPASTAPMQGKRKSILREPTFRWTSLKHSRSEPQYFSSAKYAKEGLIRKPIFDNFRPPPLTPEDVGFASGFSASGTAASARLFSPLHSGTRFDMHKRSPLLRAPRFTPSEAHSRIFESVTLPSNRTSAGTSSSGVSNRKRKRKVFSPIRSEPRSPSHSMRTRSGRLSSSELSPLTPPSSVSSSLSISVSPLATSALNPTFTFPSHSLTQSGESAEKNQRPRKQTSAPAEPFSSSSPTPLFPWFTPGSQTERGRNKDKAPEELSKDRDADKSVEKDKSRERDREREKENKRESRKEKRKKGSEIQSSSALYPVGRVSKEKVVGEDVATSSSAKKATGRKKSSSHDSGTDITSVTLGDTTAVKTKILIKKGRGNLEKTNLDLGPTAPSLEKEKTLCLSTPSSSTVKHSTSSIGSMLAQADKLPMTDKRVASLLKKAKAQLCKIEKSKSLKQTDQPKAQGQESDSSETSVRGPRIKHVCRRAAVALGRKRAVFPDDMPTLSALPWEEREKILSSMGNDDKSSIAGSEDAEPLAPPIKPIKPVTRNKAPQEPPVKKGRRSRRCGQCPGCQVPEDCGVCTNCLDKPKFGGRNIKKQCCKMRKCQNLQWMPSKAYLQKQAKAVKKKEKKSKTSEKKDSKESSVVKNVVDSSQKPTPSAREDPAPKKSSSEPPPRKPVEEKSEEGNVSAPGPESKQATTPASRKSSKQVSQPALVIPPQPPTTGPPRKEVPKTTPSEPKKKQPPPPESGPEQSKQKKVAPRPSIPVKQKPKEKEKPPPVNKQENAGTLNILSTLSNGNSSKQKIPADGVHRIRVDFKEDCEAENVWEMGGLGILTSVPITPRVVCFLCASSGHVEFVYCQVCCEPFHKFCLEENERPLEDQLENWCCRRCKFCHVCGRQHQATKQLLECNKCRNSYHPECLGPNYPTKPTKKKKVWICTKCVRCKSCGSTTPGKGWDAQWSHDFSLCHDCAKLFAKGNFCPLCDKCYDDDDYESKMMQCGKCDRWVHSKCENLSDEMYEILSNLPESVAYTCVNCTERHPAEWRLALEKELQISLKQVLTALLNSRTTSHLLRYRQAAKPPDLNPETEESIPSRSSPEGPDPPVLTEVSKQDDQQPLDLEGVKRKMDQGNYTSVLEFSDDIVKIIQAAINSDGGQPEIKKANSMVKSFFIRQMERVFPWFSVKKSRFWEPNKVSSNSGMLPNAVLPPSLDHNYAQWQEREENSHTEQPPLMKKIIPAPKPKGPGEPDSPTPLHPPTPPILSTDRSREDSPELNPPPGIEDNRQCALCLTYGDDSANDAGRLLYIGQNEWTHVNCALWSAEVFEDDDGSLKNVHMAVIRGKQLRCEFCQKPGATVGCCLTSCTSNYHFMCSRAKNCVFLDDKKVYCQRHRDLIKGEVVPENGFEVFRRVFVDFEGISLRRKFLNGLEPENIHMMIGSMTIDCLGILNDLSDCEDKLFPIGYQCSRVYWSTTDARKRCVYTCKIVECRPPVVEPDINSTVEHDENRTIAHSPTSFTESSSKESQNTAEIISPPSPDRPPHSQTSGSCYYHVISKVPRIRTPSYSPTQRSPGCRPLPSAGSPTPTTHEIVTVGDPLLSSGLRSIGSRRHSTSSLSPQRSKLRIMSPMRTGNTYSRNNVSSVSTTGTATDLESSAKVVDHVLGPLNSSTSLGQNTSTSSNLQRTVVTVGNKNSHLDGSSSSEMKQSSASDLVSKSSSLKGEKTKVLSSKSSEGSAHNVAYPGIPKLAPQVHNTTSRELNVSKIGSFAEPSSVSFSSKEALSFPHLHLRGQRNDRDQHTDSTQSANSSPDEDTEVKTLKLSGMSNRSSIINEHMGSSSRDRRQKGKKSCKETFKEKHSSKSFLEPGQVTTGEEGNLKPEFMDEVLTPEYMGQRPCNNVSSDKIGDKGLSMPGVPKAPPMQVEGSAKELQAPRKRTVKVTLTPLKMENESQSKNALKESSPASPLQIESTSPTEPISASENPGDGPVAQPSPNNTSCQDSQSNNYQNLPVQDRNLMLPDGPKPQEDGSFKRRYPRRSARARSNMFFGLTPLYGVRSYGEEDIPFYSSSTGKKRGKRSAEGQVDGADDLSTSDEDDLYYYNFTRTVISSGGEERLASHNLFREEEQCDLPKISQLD
# Chain of Histone-lysine N-methyltransferase 2A (Homo sapiens) (Q03164 2719-3969 limits assumed): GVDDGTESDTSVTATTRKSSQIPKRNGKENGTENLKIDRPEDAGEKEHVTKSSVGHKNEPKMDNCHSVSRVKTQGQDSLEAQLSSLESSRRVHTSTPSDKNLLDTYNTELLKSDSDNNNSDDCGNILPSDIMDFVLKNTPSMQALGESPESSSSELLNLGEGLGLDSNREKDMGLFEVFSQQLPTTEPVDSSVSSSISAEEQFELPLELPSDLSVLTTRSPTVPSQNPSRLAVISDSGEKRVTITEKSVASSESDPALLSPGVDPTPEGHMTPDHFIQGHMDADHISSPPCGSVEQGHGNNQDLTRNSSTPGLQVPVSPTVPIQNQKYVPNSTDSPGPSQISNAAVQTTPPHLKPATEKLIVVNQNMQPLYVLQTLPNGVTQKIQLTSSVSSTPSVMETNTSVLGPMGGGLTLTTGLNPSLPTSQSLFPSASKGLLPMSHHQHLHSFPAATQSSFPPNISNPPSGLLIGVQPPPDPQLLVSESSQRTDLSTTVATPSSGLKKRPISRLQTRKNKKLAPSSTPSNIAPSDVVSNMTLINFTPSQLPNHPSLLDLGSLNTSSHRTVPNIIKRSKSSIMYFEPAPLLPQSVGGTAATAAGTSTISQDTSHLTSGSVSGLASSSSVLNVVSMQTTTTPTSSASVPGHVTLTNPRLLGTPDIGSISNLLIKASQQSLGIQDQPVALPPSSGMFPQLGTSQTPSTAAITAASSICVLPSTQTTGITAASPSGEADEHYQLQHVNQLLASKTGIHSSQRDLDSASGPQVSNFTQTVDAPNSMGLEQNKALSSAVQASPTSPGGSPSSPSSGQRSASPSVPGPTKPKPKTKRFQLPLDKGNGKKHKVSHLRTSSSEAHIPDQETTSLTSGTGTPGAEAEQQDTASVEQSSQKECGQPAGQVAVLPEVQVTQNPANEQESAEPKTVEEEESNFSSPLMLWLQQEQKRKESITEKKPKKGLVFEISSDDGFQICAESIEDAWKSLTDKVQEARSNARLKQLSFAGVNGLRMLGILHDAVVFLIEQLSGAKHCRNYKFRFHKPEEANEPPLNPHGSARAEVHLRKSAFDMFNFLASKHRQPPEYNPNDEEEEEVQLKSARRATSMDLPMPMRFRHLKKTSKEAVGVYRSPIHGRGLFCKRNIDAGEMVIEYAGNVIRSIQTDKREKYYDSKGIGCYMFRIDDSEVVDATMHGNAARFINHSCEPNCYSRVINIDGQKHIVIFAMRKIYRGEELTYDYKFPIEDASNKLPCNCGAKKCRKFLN
# Chain of Casein kinase I isoform gamma-1 (Homo sapiens) (Q9HCP0 whole entry, looked up, canonical isoform): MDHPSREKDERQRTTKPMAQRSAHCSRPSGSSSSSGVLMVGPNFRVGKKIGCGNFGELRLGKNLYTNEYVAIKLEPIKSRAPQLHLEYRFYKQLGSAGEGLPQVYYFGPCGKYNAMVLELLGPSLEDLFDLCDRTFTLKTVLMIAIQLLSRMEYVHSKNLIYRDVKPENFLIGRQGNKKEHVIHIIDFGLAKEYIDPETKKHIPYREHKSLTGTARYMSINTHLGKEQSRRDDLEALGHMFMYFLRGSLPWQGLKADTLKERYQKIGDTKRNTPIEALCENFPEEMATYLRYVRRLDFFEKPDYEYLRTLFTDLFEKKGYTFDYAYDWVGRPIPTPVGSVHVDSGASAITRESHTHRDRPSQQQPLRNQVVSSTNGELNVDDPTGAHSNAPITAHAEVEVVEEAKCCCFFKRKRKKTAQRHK
smiles,measurement,setting,value
CCc1ccccc1C(=O)Nc1n[nH]c2c(C)c(F)c(C3C(C#N)=C(C)N(C)C(C)=C3C#N)cc12 [BAY-3827],% of control,[1],11%
Cc1cc(F)c(C(=O)Nc2cccc(-c3nncn3C(C)C)n2)cc1-n1cnc(C2CC2)c1,% of control,[2],100%
O=C(NOC[C@H](O)CO)c1ccc(F)c(F)c1Nc1ccc(I)cc1F,% of control,[3],45%
same,% of control,[4],50%
same,% of control,[5],41%
same,% of control,[6],57%
same,% of control,[7],33%
Cc1cc([C@@H](C)Nc2ccccc2C(=O)O)c2nc(N3CCOCC3)cc(=O)n2c1 [AZD-6482],% of control,[8],97%
Cc1cc(C)cc([C@@H]2c3cc(C)ccc3NC(=O)CN2C(=O)c2ccc(Br)s2)c1,% of inhibition,[9],17%
same,% of activity,[10]; at 1 µM,99.7%
same,% of activity,[10]; at 10 µM,103%
CC(=O)c1cc(-c2ccccc2OCC2CC2)c2ncccn12,% of control,D(1A) dopamine receptor,90%
CNC(=O)Nc1ccc(-c2nc(N3CC4CCC(C3)O4)c3cnn(C4CCC5(CC4)OCCO5)c3n2)cc1,% of inhibition,[11],-2%
same,% of control,[12],72%
CN(C)CCOc1ccc(-c2nc(-c3ccncc3)c(-c3ccc4c(c3)CC/C4=N\O)[nH]2)cc1,% of control,[13],94%
CCC(=O)N1CCN(c2ccc(-n3c(=O)ccc4cnc5ccc(-c6cnc7ccccc7c6)cc5c43)cc2C(F)(F)F)CC1,% of control,[14],89%
